What is called LD50 is the dose expected to kill half of the subjects tested. Read a low LD50 as greater toxicity.

Data on 4 molecules can be found in EP0259014A2, “5-Deoxy-5-fluorokanamycin B derivatives and processes for the production thereof” (ZAIDAN HOJIN BISEIBUTSU KAGAKU KENKYU KAI, priority 1986, dated 1988).

The test system of series [1] is Escherichia coli JR66/W677. The series can be described thus: microbe, parasite or virus in culture. It counts as cell-based. Conditions: JR66/W677, 18 h.
Series [2] concerns Escherichia coli K-12 R5. The series can be described thus: MIC, serial dilution on Mueller Hinton agar. The conditions noted are these: K12R5, 18 h. It counts as cell-based.
Series [3] has as its system Serratia marcescens. The series can be described thus: MIC, serial dilution on Mueller Hinton agar. It counts as cell-based.
The nature of series [4]: in vivo. Conditions: mouse, iv.
In series [5] the test system is Escherichia coli JR225. The series can be described thus: microbe, parasite or virus in culture. It counts as cell-based. Conditions: Escherichia coli, JR225, 18 h.
For series [6], the system named is Proteus rettgeri GN 311. The series can be described thus: MIC, serial dilution on Mueller Hinton agar. It counts as cell-based. Conditions: Providencia rettgeri, GN311; Proteus rettgeri GN 311; Mueller Hinton agar, 37°C, 18 hours; read-out: MIC.
The test system of series [7] is Staphylococcus aureus Ap01. The series can be described thus: MIC, serial dilution on Mueller Hinton agar. It counts as cell-based.
Series [8] has as its system Corynebacterium bovis 1810. The series can be described thus: MIC, serial dilution on Mueller Hinton agar. It counts as cell-based.
The subject of series [9] is Pseudomonas aeruginosa GN 315. The series can be described thus: MIC, serial dilution on Mueller Hinton agar. It counts as cell-based. The conditions noted are these: GN315; Pseudomonas aeruginosa GN 315, resistance mechanism AAC(6'); Mueller Hinton agar, 37°C, 18 hours; read-out: MIC.
The subject of series [10] is Staphylococcus aureus 209P. The series can be described thus: MIC, serial dilution on Mueller Hinton agar. It counts as cell-based. The conditions noted are these: Staphylococcus aureus 209P; Mueller Hinton agar, 37°C, 18 hours; read-out: MIC.
The test system of series [11] is Escherichia coli K-12. The series can be described thus: MIC, serial dilution on Mueller Hinton agar. It counts as cell-based.
The subject of series [12] is Klebsiella pneumoniae 22#3038. The series can be described thus: MIC, serial dilution on Mueller Hinton agar. It counts as cell-based. Conditions: Klebsiella pneumoniae 22#3038, resistance mechanism APH(3')-II, ANT(2"), 37°C, 18 hours. The source says: The antibacterial spectra so determined of the new compounds No. 1 to No. 13 (each in the form of the free base) of this invention are as shown in Table 1 below.

Series [13] relates to Mycobacterium 607. The series can be described thus: MIC, serial dilution on Mueller Hinton agar. It counts as cell-based.
Series [14] has as its system Pseudomonas aeruginosa A3. The series can be described thus: MIC, serial dilution on Mueller Hinton agar. It counts as cell-based. The conditions noted are these: Pseudomonas aeruginosa A3; Mueller Hinton agar, 37°C, 18 hours; read-out: MIC.
Series [15] has as its system Escherichia coli K-12 ML 1629. The series can be described thus: MIC, serial dilution on Mueller Hinton agar. It counts as cell-based. Conditions: K12ML1629, Escherichia coli K-12 ML 1629, resistance mechanism APH(3')-I, 37°C, 18 hours.
For series [16], the system named is Escherichia coli K-12 LA 290 R55. The series can be described thus: MIC, serial dilution on Mueller Hinton agar. It counts as cell-based. The conditions noted are these: Escherichia coli, K12LA290R55, 18 h.
The subject of series [17] is Providencia sp. Pv 16. The series can be described thus: MIC, serial dilution on Mueller Hinton agar. It counts as cell-based.
Series [18] relates to Bacillus subtilis PCI219. The series can be described thus: MIC, serial dilution on Mueller Hinton agar. It counts as cell-based. Conditions: Bacillus subtilis PCI219; Mueller Hinton agar, 37°C, 18 hours; read-out: MIC.
The mark [19] stands for this setting: Mueller Hinton agar, 37°C, 18 hours, read-out: MIC.
The mark [20] stands for this setting: SP.PV16, Providencia sp. Pv 16, resistance mechanism AAC(2'), Mueller Hinton agar, 37°C, 18 hours, read-out: MIC.
Setting [21] is: Staphylococcus aureus Ap01, resistance mechanism ANT(4'), Mueller Hinton agar, 37°C, 18 hours, read-out: MIC.
The mark [22] stands for this setting: Corynebacterium bovis 1810, Mueller Hinton agar, 37°C, 18 hours, read-out: MIC.
[23] abbreviates: K12, Escherichia coli K-12, Mueller Hinton agar, 37°C, 18 hours, read-out: MIC.

Converted amounts (≈) assume the structure as drawn. Where two headings read alike, the source gives them in different places.

For `NC[C@@H]1CC[C@@H](N)[C@@H](O[C@H]2[C@H](F)[C@@H](O[C@H]3O[C@H](CO)[C@@H](O)[C@H](N)[C@H]3O)[C@H](N)C[C@@H]2N)O1` [Compound No. 4, 5,3',4'-Trideoxy-5-fluorokanamycin B], the MIC in series [1] was determined as 3.12 µg/mL (≈ 6.88 µM); in series [2], 100 µg/mL (≈ 221 µM); in series [3] (setting [19]), 12.5 µg/mL (≈ 27.6 µM); in series [5], 3.12 µg/mL (≈ 6.88 µM); in series [6], 0.78 µg/mL (≈ 1.72 µM); in series [7] (Staphylococcus aureus, AP01, 18 h), 3.12 µg/mL (≈ 6.88 µM). In addition, the MIC in series [8] (Corynebacterium bovis, 1810, 18 h) worked out at 6.25 µg/mL (≈ 13.8 µM); in series [9], 100 µg/mL (≈ 221 µM); in [10] it was 0.78 µg/mL (≈ 1.72 µM); in series [11] (Escherichia coli, K12, 18 h) it was 3.12 µg/mL (≈ 6.88 µM); in series [12] it was 6.25 µg/mL (≈ 13.8 µM); in [13] (Mycobacterium, 607, 40 h), 6.25 µg/mL (≈ 13.8 µM). For the same molecule, the MIC in series [14] turned out to be 0.39 µg/mL (≈ 0.86 µM); in [15], 3.12 µg/mL (≈ 6.88 µM); in [16], 6.25 µg/mL (≈ 13.8 µM); in series [17] (setting [20]), 12.5 µg/mL (≈ 27.6 µM); in [18], 0.78 µg/mL (≈ 1.72 µM). Also, the LD50 in [4] worked out at 140 mg/kg.
Take `NC[C@H]1O[C@H](O[C@H]2[C@H](O)[C@@H](O[C@H]3O[C@H](CO)[C@@H](O)[C@H](N)[C@H]3O)[C@H](N)C[C@@H]2N)[C@H](N)C[C@@H]1O` [TMB, 3'-deoxykanamycin B, reference compound]: the MIC in series [1] stood at 12.5 µg/mL (≈ 26.7 µM); in series [2] it was 100 µg/mL (≈ 214 µM); in series [3] (18 h), 12.5 µg/mL (≈ 26.7 µM); in series [5], 25 µg/mL (≈ 53.5 µM); in series [6], 0.2 µg/mL (≈ 0.428 µM); in series [7] (setting [21]), 1.56 µg/mL (≈ 3.34 µM). In addition, the MIC in series [8] (setting [22]) is 6.25 µg/mL (≈ 13.4 µM); in [9] it was 50 µg/mL (≈ 107 µM); in series [10], under 0.2 µg/mL; in series [11] (setting [23]), 0.39 µg/mL (≈ 0.834 µM); in [12], 12.5 µg/mL (≈ 26.7 µM); in series [14] it was under 0.2 µg/mL. Moreover, the MIC in [16] was 25 µg/mL (≈ 53.5 µM); in series [17] (setting [20]), 6.25 µg/mL (≈ 13.4 µM); in series [18], under 0.2 µg/mL. The LD50 in series [4] amounted to 80 mg/kg.
Regarding `NC[C@H]1O[C@H](O[C@H]2[C@H](F)[C@@H](O[C@H]3O[C@H](CO)[C@@H](O)[C@H](N)[C@H]3O)[C@H](N)C[C@@H]2N)[C@H](N)C[C@@H]1O` [Compound No. 2, 5,3'-Dideoxy-5-fluorokanamycin B], the MIC in series [2] is 25 µg/mL (≈ 53.2 µM); in series [3] (setting [19]), 6.25 µg/mL (≈ 13.3 µM); in series [6], under 0.2 µg/mL; in series [7] (setting [21]), 0.39 µg/mL (≈ 0.831 µM); in [8] (setting [22]), 1.56 µg/mL (≈ 3.32 µM); in series [9] it was 50 µg/mL (≈ 106 µM). In addition, the MIC is 0.39 µg/mL (≈ 0.831 µM) in series [10]; under 0.2 µg/mL in series [11] (setting [23]); 3.12 µg/mL (≈ 6.65 µM) in [12]; under 0.2 µg/mL in [14]; 3.12 µg/mL (≈ 6.65 µM) in series [16]; 3.12 µg/mL (≈ 6.65 µM) in [17] (Providencia, SP.PV16, 18 h). Besides, the LD50 in series [4] turned out to be 200 mg/kg.
As for `NCC[C@H](O)C(=O)N[C@@H]1C[C@H](N)[C@@H](O[C@H]2O[C@H](CN)[C@@H](O)C[C@H]2N)[C@H](F)[C@H]1O[C@H]1O[C@H](CO)[C@@H](O)[C@H](N)[C@H]1O` [Compound No. 9, 1-N-(4-Amino-2-(S)-hydroxybutyryl)-5,3'-dideoxy-5-fluorokanamycin B], the MIC is 0.78 µg/mL (≈ 1.37 µM) in series [1]; 3.12 µg/mL (≈ 5.47 µM) in [2]; 3.12 µg/mL (≈ 5.47 µM) in [3] (18 h); 0.39 µg/mL (≈ 0.683 µM) in series [5]; under 0.2 µg/mL in series [6]; 0.78 µg/mL (≈ 1.37 µM) in [7] (setting [21]). In addition, the MIC in [8] (setting [22]) is under 0.2 µg/mL; in series [9] it was 6.25 µg/mL (≈ 11 µM); in series [10], 0.39 µg/mL (≈ 0.683 µM); in [11] (setting [23]), under 0.2 µg/mL; in [12], 1.56 µg/mL (≈ 2.73 µM); in [13] (Mycobacterium 607, Mueller Hinton agar, 37°C, incubated for 40 hours, read-out: MIC.), 0.78 µg/mL (≈ 1.37 µM). The MIC in series [14] was 0.39 µg/mL (≈ 0.683 µM); in [15], 0.78 µg/mL (≈ 1.37 µM); in series [16], 0.78 µg/mL (≈ 1.37 µM); in [17] (setting [20]), 0.78 µg/mL (≈ 1.37 µM); in series [18] it was under 0.2 µg/mL. This molecule gave an LD50 in series [4] of 150 mg/kg.
